In brackets after ≈: the same amount, converted by molar mass.

These results are taken from ChEMBL document CHEMBL1134821, “Synthesis and anti-HIV activity of oleanolic acid derivatives” (Bioorg Med Chem Lett, 2001).

A short description of data set [1]: Therapeutic index was determined. Particulars: for selectivity ratio: read-out: TI.
Data set [2] has as its system H9. Kind of data set: Antiviral activity against HIV-1(IIIB) infected H9 cell lines. The format is functional, cell-based. Particulars: Homo sapiens.
The subject of data set [3] is H9. Put plainly: Concentration which was toxic to 50% of the mock-infected H9 lymphocyte. The format is functional, cell-based. Particulars: Homo sapiens.

As for `CC1(C)CC[C@]2(C(=O)O)CC[C@]3(C)[C@H](CC[C@@H]4[C@@]5(C)CC[C@H](OC(=O)CC(C)(C)C(=O)O)C(C)(C)[C@@H]5CC[C@]43C)[C@@H]2C1`, the selectivity ratio in data set [1] was 3570. For the same compound, the response with H9 [2] was half-maximal at 0.0039 µg/mL (≈ 0.00665 µM) (EC50). In addition, in the data set on H9 [3], the IC50 (usually the midpoint of a concentration-inhibition curve) came out at 13.7 µg/mL (≈ 23.3 µM).

For the compound `CC1(C)CC[C@]2(C(=O)O)CC[C@]3(C)C(=CC[C@@H]4[C@@]5(C)CC[C@H](OC(=O)CC6(CC(=O)O)CCCC6)C(C)(C)[C@@H]5CC[C@]43C)[C@@H]2C1`, in the data set with H9 [2], the EC50 (usually the concentration that produces a half-maximal response) was found to be 1.2 µg/mL (≈ 1.92 µM). Besides, the IC50 with H9 [3] was found to be 4.7 µg/mL (≈ 7.52 µM).

`CC1(C)CC[C@]2(C(=O)O)CC[C@]3(C)[C@H](CC[C@@H]4[C@@]5(C)CC[C@H](OC(=O)CCCC(=O)O)C(C)(C)[C@@H]5CC[C@]43C)[C@@H]2C1`: the selectivity ratio in data set [1] turned out to be 4.9. The compound also registered an EC50 in the data set on H9 [2] of 2.6 µg/mL (≈ 4.54 µM). In the data set on H9 [3], the IC50 is 12.9 µg/mL (≈ 22.5 µM).

Take `CC(C)(CC(=O)O)CC(=O)O[C@H]1CC[C@]2(C)[C@H]3CC[C@@H]4[C@@H]5CC(C)(C)CC[C@]5(C(=O)O)CC[C@@]4(C)[C@]3(C)CC[C@H]2C1(C)C`: in data set [1], the selectivity ratio turned out to be 83. For the same compound, the concentration for a half-maximal effect (EC50) with H9 [2] worked out at 0.1 µg/mL (≈ 0.166 µM). The compound further came in with an IC50 with H9 [3] of 8.3 µg/mL (≈ 13.8 µM).

`CC1(C)CC[C@]2(C(=O)O)CC[C@]3(C)C(=CC[C@@H]4[C@@]5(C)CC[C@H](OC(=O)CCCC(=O)O)C(C)(C)[C@@H]5CC[C@]43C)[C@@H]2C1` gave an EC50 in the data set on H9 [2] of 7.1 µg/mL (≈ 12.4 µM). This compound also registered an IC50 in the data set on H9 [3] of 14.6 µg/mL (≈ 25.6 µM).

In the case of `CC(C)(CC(=O)O)CC(=O)O[C@H]1CC[C@]2(C)[C@H]3CC=C4[C@@H]5CC(C)(C)CC[C@]5(C(=O)O)CC[C@@]4(C)[C@]3(C)CC[C@H]2C1(C)C`, the EC50 in the data set with H9 [2] came out at 1.5 µg/mL (≈ 2.5 µM). In the data set on H9 [3], this compound displayed an IC50 of 14.2 µg/mL (≈ 23.7 µM).

Take `CC(C)(CC(=O)O)CC(=O)NC[C@]12CCC(C)(C)C[C@H]1C1=CC[C@@H]3[C@@]4(C)CC[C@H](OC(=O)CC(C)(C)CC(=O)O)C(C)(C)[C@@H]4CC[C@@]3(C)[C@]1(C)CC2`: the selectivity ratio in data set [1] was found to be 212. Further, the EC50 in the data set on H9 [2] is 0.1 µg/mL (≈ 0.138 µM). This compound also showed an IC50 with H9 [3] of 21.2 µg/mL (≈ 29.2 µM).

As to `CC1(C)CC[C@]2(C(=O)O)CC[C@]3(C)[C@H](CC[C@@H]4[C@@]5(C)CC[C@H](OC(=O)CC6(CC(=O)O)CCCC6)C(C)(C)[C@@H]5CC[C@]43C)[C@@H]2C1`, the selectivity ratio in data set [1] was determined as 101. In addition, in the data set with H9 [2], the EC50 stood at 0.1 µg/mL (≈ 0.16 µM). The compound also came in with an IC50 with H9 [3] of 10.1 µg/mL (≈ 16.1 µM).

Regarding `CC1(C)CC[C@]2(C(=O)O)CC[C@]3(C)[C@H](CC[C@@H]4[C@@]5(C)CC[C@H](O)C(C)(C)[C@@H]5CC[C@]43C)[C@@H]2C1`, in data set [1], the selectivity ratio was 34.8. In addition, a half-maximal effect in the data set with H9 [2] (EC50) was put at 0.5 µg/mL (≈ 1.09 µM). Moreover, it took 17.4 µg/mL (≈ 37.9 µM) to reach half-maximal inhibition in the data set with H9 [3] (IC50).

On to `CC1(C)CC[C@]2(C(=O)O)CC[C@]3(C)C(=CC[C@@H]4[C@@]5(C)CC[C@H](O)C(C)(C)[C@@H]5CC[C@]43C)[C@@H]2C1` [OLEANOLIC_ACID], for which the TI in data set [1] was 12.8. The compound also came in with an EC50 in the data set on H9 [2] of 1.7 µg/mL (≈ 3.72 µM). The IC50 in the data set on H9 [3] was found to be 21.8 µg/mL (≈ 47.7 µM).

For `CC(CC(=O)O)CC(=O)O[C@H]1CC[C@]2(C)[C@H]3CC[C@@H]4[C@@H]5CC(C)(C)CC[C@]5(C(=O)O)CC[C@@]4(C)[C@]3(C)CC[C@H]2C1(C)C` (stereo partly specified), the selectivity ratio in data set [1] is 123. This compound also yielded an EC50 with H9 [2] of 0.1 µg/mL (≈ 0.17 µM). In the data set with H9 [3], this compound gave an IC50 of 12.3 µg/mL (≈ 21 µM).

For the compound `CC(CC(=O)O)CC(=O)O[C@H]1CC[C@]2(C)[C@H]3CC=C4[C@@H]5CC(C)(C)CC[C@]5(C(=O)O)CC[C@@]4(C)[C@]3(C)CC[C@H]2C1(C)C` (stereo partly specified), the selectivity ratio in data set [1] turned out to be 3.3. The EC50 with H9 [2] turned out to be 8.3 µg/mL (≈ 14.2 µM). Further, in the data set with H9 [3], the IC50 was 27.5 µg/mL (≈ 47 µM).

Take `CC1(C)CC[C@]2(CNC(=O)CC3(CC(=O)O)CCCC3)CC[C@]3(C)C(=CC[C@@H]4[C@@]5(C)CC[C@H](OC(=O)CC6(CC(=O)O)CCCC6)C(C)(C)[C@@H]5CC[C@]43C)[C@@H]2C1`: the selectivity ratio in data set [1] turned out to be 195. For the same compound, the response in the data set with H9 [2] was half-maximal at 0.1 µg/mL (≈ 0.129 µM) (EC50). In addition, in the data set with H9 [3], the IC50 was 19.5 µg/mL (≈ 25.1 µM).
